Test results: patent US20240207373A1, “CYCLIC PEPTIDES FROM THE C-TERMINUS OF ACETYLCHOLINESTERASE FOR TREATMENT OF SKIN DISORDERS AND FOR COSMETICAL USE” (priority 2020, published 2024)
Where a SMILES comes first, the peptide text is derived from it. Where no end group is shown, it is not given here.

Assays:
[1] = system: keratinocyte cell line HaCaTs; assay: Intracellular calcium influx in keratinocyte cell line HaCaTs; format: cell-based, human; details: in presence of T30, FIG. 2
Excerpt: As described in the examples, the inventors performed intracellular calcium imaging and cell proliferation assays on the keratinocyte cell line, HaCaTs, a widely used and characterized model for human keratinocytes.
The inventors examined the ability of the acetylcholinesterase-derived linear peptides, T30 and T15, and the cyclic peptide NBP-14, to induce intracellular calcium influx into the keratinocyte cell line, and the results are shown in FIG. 2.

HaCaT cell line = assay: Cell viability (cell toxicity) in HaCaT cell line; format: cell-based, human; details: FIG. 3A
Excerpt: The inventors next examined the ability of the acetylcholinesterase-derived peptides, T30 and T15, to induce proliferation of the HaCaT cell line and also tested cell viability to determine cell toxicity of NBP-14, T15 and T30 to the HaCaT cell line.

Row | Compound | inhibition of T30-induced intracellular calcium influx [1] | cell viability / cytotoxic effects (HaCaT cell line)
1 | CSCC[C@@H]1NC(=O)[C@H](Cc2ccc(O)cc2)NC(=O)[C@H](CO)NC(=O)[C@H](CO)NC(=O)[C@H](Cc2c[nH]c3ccccc23)NC(=O)[C@H](CCCNC(=N)N)NC(=O)[C@H](Cc2c[nH]cn2)NC(=O)[C@H](Cc2ccccc2)NC(=O)[C@H](CCC(=O)O)NC(=O)[C@H](C)NC(=O)[C@H](CCCCN)NC(=O)[C@H](Cc2c[nH]c3ccccc23)NC(=O)[C@H](Cc2c[nH]cn2)NC(=O)[C@H](C(C)C)NC1=O [NBP-14] (cyclo(AEFHRWSSYMVHWK)) | significantly inhibit the effects of T30 | do not show induced significant cytotoxic effects
2 | KAEFHRWSSYMVHWKNQFDHYSKQDRCSDL [T30] | – | do not show induced significant cytotoxic effects
3 | NQFDHYSKQDRCSDL [T15] | – | do not show induced significant cytotoxic effects
